The results in this text go back to ChEMBL document CHEMBL1125803 (J Med Chem, 1991).

The target in assay [1] is T1, Human immunodeficiency virus type 1 protease (Human immunodeficiency virus 1, UniProt Q72874). As to the kind of experiment: (§1) Binding activity against HIV-1 Protease.
For assay [2], the target named is T1, Human immunodeficiency virus type 1 protease. The description is as §1. This is another data set of the same source.

Numbered stars: 1 amine (or outer) side, 2 acyl side, 3 side chain; on linkers, the order of the positions; unused ones are H or OH. Square brackets hold non-standard residues; d marks the D form. Peptide text beside a SMILES is read from it. X1 = O=C([C@@H]1CCCN1CC(O)[C@H](Cc1ccccc1)N[*:1])[*:2]

The term IC50 denotes the concentration that inhibits the measured activity by half.

On to `CC[C@H](C)[C@H](NC(=O)[C@@H]1CCCN1C[C@@H](O)[C@H](Cc1ccccc1)NC(=O)[C@H](CC(N)=O)NC(=O)OCc1ccccc1)C(=O)N[C@H](C(=O)OC)C(C)C`, for which the 50% inhibitory concentration (IC50) in assay [1] and in assay [2] was over 100 nM each time.
`CC(C)(C)OC(=O)[C@@H]1CCCN1C[C@@H](O)[C@H](Cc1ccccc1)NC(=O)[C@H](CC(N)=O)NC(=O)OCc1ccccc1`: the IC50 in assay [1] and in assay [2] was 140 nM each time.
On to `CC(C)(C)OC(=O)[C@@H]1CCCN1C[C@H](O)[C@H](Cc1ccccc1)NC(=O)[C@H](CC(N)=O)NC(=O)OCc1ccccc1`, for which the IC50 in assay [1] and in assay [2] was 300 nM in each case.
Turning to `CC[C@H](C)[C@H](NC(=O)C1CC2CCCCC2CN1C[C@H](O)[C@H](Cc1ccccc1)NC(=O)[C@H](CC(N)=O)NC(=O)OCc1ccccc1)C(=O)N[C@H](C(=O)OC)C(C)C` (stereo partly drawn), the IC50 in assay [1] and in assay [2] was over 100 nM in each case.
For `CC[C@H](C)[C@H](NC(=O)[C@@H]1CCCN1C[C@H](O)[C@H](Cc1ccccc1)NC(=O)[C@H](CC(N)=O)NC(=O)OCc1ccccc1)C(=O)N[C@H](C(=O)OC)C(C)C`, the IC50 in assay [1] and in assay [2] was 13 nM each time.
In the case of `CC(C)(C)NC(=O)C1CC2CCCCC2CN1C[C@H](O)[C@H](Cc1ccccc1)NC(=O)[C@H](CC(N)=O)NC(=O)OCc1ccccc1` (stereo partly drawn), the IC50 in assay [1] and in assay [2] was over 100 nM each time.
Consider `CC(C)(C)NC(=O)C1CC2CCCCC2CN1C[C@@H](O)[C@H](Cc1ccccc1)NC(=O)[C@H](CC(N)=O)NC(=O)OCc1ccccc1` (stereo partly drawn), for which the IC50 in assay [1] and in assay [2] was under 2.7 nM each time.
As for `CC[C@H](C)[C@H](NC(=O)C1CC2CCCCC2CN1C[C@@H](O)[C@H](Cc1ccccc1)NC(=O)[C@H](CC(N)=O)NC(=O)OCc1ccccc1)C(=O)N[C@H](C(=O)OC)C(C)C` (stereo partly drawn), the IC50 in assay [1] and in assay [2] was over 100 nM each time.
Turning to `CC[C@H](C)[C@H](NC(=O)[C@@H]1CCCN1CC(O)[C@H](Cc1ccccc1)NC(=O)[C@H](CC(N)=O)NC(=O)[C@H](CC(C)C)NC(=O)[C@H](CO)NC(C)=O)C(=O)OC` (stereo partly drawn) (Ac-SLN[X1]I-OMe), the IC50 in assay [1] and in assay [2] was 420 nM throughout.
